One data set has as its system Mino cells. Kind of data set: Annexin V/PI toxicity in Mino cells. It counts as cell-based, Human. The note with it: 150 μM z-VAD-fmk. The protocol:
Primary MCL cells were isolated from PBMC (with informed patient consent under a protocol approved by IRB) as described before. All the MCL patients were identified as outlined by the World Health Organization (WHO) classification. Human mantle cell lymphoma patient cell lines (Mino and Jeko) were obtained from Dr. Raymond Lai. Primary cells or MCL cell lines were incubated in RPMI 1640 media, supplemented with 10%-20% heat-inactivated fetal bovine serum, 2 mM L-glutamine and penicillin (100 U/mL)/streptomycin ([…]) at 37° C. in an atmosphere of 5% CO2. FTY720 was synthesized as previously described. Toxicity was determined by flow cytometry using Annexin-V-FITC and Propidium Iodide (PI) staining. Apoptotic cells were identified as Annexin-V+ and/or PI+ cells. Cells excluding both FITC and PI were considered viable. Western Blotting was performed as described previously using indicated antibodies. The PARP (Ab-2) and Caspase 9 antibodies were purchased from Oncogene/Calbiochem/EMD Biosciences (San Diego, Calif.). Cyclin D1, Akt, Actin, Mcl-1, p-ERK, ERK and Bcl-2 were obtained from Santa Cruz biotech (Santa Cruz, Calif.).
Several therapeutic agents, including fludarabine, chlorambucil, 2-chloro-2-deoxyadenosine and glucocorticoids, induce toxicity in B cell malignancies through activating caspases, the cysteine proteases of CED3/ICE family. Inhibition of these caspases results in abrogation of apoptosis mediated by the toxic stimuli. To determine if caspase activation is involved in FTY720-induced cytotoxicity in MCL, we pretreated Mino cells with 150 μM broad spectrum caspase inhibitor z-VAD-fmk. […] Activation of caspases results in cleavage of key cellular proteins including poly-ADP-ribose polymerase (PARP).

The subject of data set [1] is CD19+ B cells from CLL patients. It is filed as cell-based. The note with it: CLL cells. The method, then:
Cells: Blood was obtained from patients with B-cell CLL with informed consent under a protocol approved by the hospital internal review board. All patients examined in this series had immunophenotypically defined CLL as outlined by the modified 96 National Cancer Institute criteria. B-CLL cells were isolated from freshly donated blood using ficoll density gradient centrifugation (Ficoll-Paque Plus, Amershan Biosciences, Piscataway, N.J.). Isolated mononuclear cells were incubated in RPMI 1640 media (Gibco/Invitrogen, Carlsbad, Calif.) supplemented with 10% heat-inactivated fetal bovine serum (FBS, Hyclone Laboratories, Logan, Utah), 2 mM L-glutamine (Invitrogen, Carlsbad, Calif.), and penicillin (100 U/mL)/streptomycin (100 μg/ml) [Sigma-Aldrich, St. Louis] at 37° C. in an atmosphere of 5% CO2. Freshly isolated B-CLL cells were used in all experiments described herein. Enriched B-lymphocyte fractions were prepared by using MACS negative selection kit by Miltenyi Biotech (Auburn, Calif.) or by “Rosette-Sep” kit from Stem Cell Technologies (Vancouver, British Columbia, Canada) according to the manufacturer's instructions. Human B-lymphocyte cell lines Raji and Ramos were obtained from ATCC (Manassas, Va.) and the MEC cells were obtained from German cell line bank (Braunschweig, Germany). The 697-neo and 697-Bcl-2 cell lines were kind gift from Dr. John Reed (Burnham Institute, La Jolla, Calif.). Cells were cultured at 37° C. in an atmosphere of 5% CO2 in RPMI 1640 media (Gibco/Invitrogen, Carlsbad, Calif.) supplemented with 10% fetal bovine serum (Gibco/Invitrogen).
Analysis of cell viability and apoptosis: The cell viability was carried out by dual staining with Annexin V conjugated to flourescein-isothyocyanate (FITC) and Propidium iodide (PI) as described previously. Briefly, 1×10^6 cells were stained with Annexin V-FITC (BD Pharmingen) and Propidium iodide (BD Pharmingen) for 15 minutes in dark and analyzed by flow cytometry using a Beckman-Coulter EPICS XL cytometer (Beckman-Coulter, Miami, Fla.). Apoptotic cells were identified as Annexin V and/or PI positive cells. Cells excluding both FITC and PI were considered to be viable. The Annexin V^−/PI^− cells are represented as % live cells normalized to untreated controls.
B-CLL cells are reported to be resistant to apoptosis in-vivo. To systematically analyze the effects of FTY720 on B-CLL cells, purified CD19^+ cells from B-CLL patients were incubated with increasing concentrations of FTY720 ranging from 0, 0.5, 1, 1.5, 2.5, 5 or 10 uM. The cytotoxic effects were independently determined by flow cytometry using propidium iodide (PI) and Annexin V conjugated FITC reagents. Populations excluding both PI and Annexin V-FITC staining were considered viable. […]

Data set [2] deals with MEC, Ramos, Raji, 697 and RS4-11 B cell lines. The experiment in a line: Annexin V/PI viability by flow cytometry in B cell lines. Conditions: Ramos cells; okadaic acid pretreatment. It counts as cell-based, Human. The method, then: Cells: Blood was obtained from patients with B-cell CLL with informed consent under a protocol approved by the hospital internal review board. All patients examined in this series had immunophenotypically defined CLL as outlined by the modified 96 National Cancer Institute criteria. B-CLL cells were isolated from freshly donated blood using ficoll density gradient centrifugation (Ficoll-Paque Plus, Amershan Biosciences, Piscataway, N.J.). Isolated mononuclear cells were incubated in RPMI 1640 media (Gibco/Invitrogen, Carlsbad, Calif.) supplemented with 10% heat-inactivated fetal bovine serum (FBS, Hyclone Laboratories, Logan, Utah), 2 mM L-glutamine (Invitrogen, Carlsbad, Calif.), and penicillin (100 U/mL)/streptomycin (100 μg/ml) [Sigma-Aldrich, St. Louis] at 37° C. in an atmosphere of 5% CO2. Freshly isolated B-CLL cells were used in all experiments described herein. […]
Analysis of cell viability and apoptosis: The cell viability was carried out by dual staining with Annexin V conjugated to flourescein-isothyocyanate (FITC) and Propidium iodide (PI) as described previously. Briefly, 1×10^6 cells were stained with Annexin V-FITC (BD Pharmingen) and Propidium iodide (BD Pharmingen) for 15 minutes in dark and analyzed by flow cytometry using a Beckman-Coulter EPICS XL cytometer (Beckman-Coulter, Miami, Fla.). […]
On the technique in general: Flow cytometry measures light scatter and fluorescence of single cells or particles in a stream.

Data set [3] concerns PP2A. The experiment in a line: PP2A activity in lysates of Ramos B cell line. It is filed as cell-based, Human. The method, then:
(§1) PP2A Activity: The protein phosphatase activity of total cellular lysate was determined by measuring the generation of free PO4 from the threonine phosphopeptide using the malachite green-phosphate complex assay as described by the manufacturer (Upstate, Charlottesville, […].). Cell lysates were prepared in a low detergent lysis buffer (1% Nonidet P-40, 10 mM HEPES, 0.5M NaCl, 10% Glycerol, 1 mM PMSF, 5 mM Benzamidine, 10 μg/ml leupeptin). The phosphatase assay was performed in a PP2A-specific reaction buffer (Upstate) using 750 μM phosphopeptide substrate. After 30-min incubation at 30° C. malachite dye was added, and free phosphate was measured by optical density at 650 nm. To avoid variability among different immunoprecipitated samples, the phosphatase activities were normalized with the amount of PP2A immunoprecipitated, as detected and quantified by western blot analysis of each treatment group.
In order to determine if FTY720 induced activation of PP2A enzyme in CD19^+ B cells from CLL patients were treated with 10 uM FTY720 for 0, 1, 2, 3, 4 and 15 hrs and the PP2A activity in the lysates were quantified using a functional assay following immunoprecipitation of PP2A enzyme. As reported previously in other systems, FTY720 induced a consistent 2-3 fold increase in PP2A activation with the peak response observed at 4 hour post treatment (FIG. 6a). […]

In data set [4] the test system is PP2A. The experiment in a line: PP2A activity (malachite green phosphatase assay) in lysates of CLL cells. Conditions: pretreatment with 5 nM okadaic acid. It counts as cell-based, Human. The protocol:
as §1
In order to determine if FTY720 induced activation of PP2A enzyme in CD19^+ B cells from CLL patients were treated with 10 uM FTY720 for 0, 1, 2, 3, 4 and 15 hrs and the PP2A activity in the lysates were quantified using a functional assay following immunoprecipitation of PP2A enzyme. As reported previously in other systems, FTY720 induced a consistent 2-3 fold increase in PP2A activation with the peak response observed at 4 hour post treatment (FIG. 6a). […] Similar phenomenon was also observed in Ramos B cell line. FTY720 induced activation of PP2A in Ramos cell line as early as 3 hours and this induced PP2A activity was inhibited by okadaic acid (FIG. 7a-b).

Results on two compounds are retold here after US8318812B2, “Therapeutic agents for the treatment of lymphoid malignancies” (The Ohio State University Research Foundation, priority 2006, dated 2012).

A value given as a limit tells only on which side of the number the result lay.

Turning to z-VAD-fmk, in the data set on Mino cells, the “reduction in FTY720 induced apoptosis” value is about 50% and the “reduction in fludarabine induced apoptosis” value is recorded as about 50%. Besides, in data set [1] (z-VAD-fmk 150 uM), the “effect of z-VAD-fmk on FTY720 induced apoptosis” value is given as “failed to prevent FTY720 induced apoptosis” and the “effect of z-VAD-fmk on fludarabine induced apoptosis” value is “effectively rescued fludarabine induced apoptosis”.
In the case of `C=C1[C@@H](O)[C@@H]2O[C@]3(CC[C@H](/C=C/[C@@H](C)[C@@H]4CC(C)=C[C@@]5(O[C@H](C[C@@](C)(O)C(=O)O)CC[C@H]5O)O4)O3)CC[C@H]2O[C@@H]1[C@@H](O)C[C@H](C)[C@H]1O[C@@]2(CCCCO2)CC[C@H]1C` [okadaic acid], the “effect of okadaic acid on FTY720 induced apoptosis” value in data set [2] is recorded as “inhibition of FTY720 induced apoptosis”. The “effect of okadaic acid on FTY720 induced PP2A activity” value in the data set with PP2A [3] is recorded as “inhibited”. Besides, the “inhibition of the FTY720 induced PP2A activation” value with PP2A [4] was at most 3 fold. The “effect of okadaic acid on FTY720 induced cellular cytotoxicity” value in data set [1] (okadaic acid pretreatment) is given as “inhibition of FTY720 induced cellular cytotoxicity”.
